Data as given in the supplement of paper PMC11061612.

Legend:
U251 (Low Grade Glioma) [1] = assay: combination Emax (second highest fraction inhibited in the dose matrix, 72 h); higher = more inhibition; extreme values may be limits of the assay
In short: (§1)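 After 24 hours at 37°C and 5% CO2 in 1536-well plates, cells in DMEM/F12 or RPMI plus 10% FBS received two-drug dose matrices for 72 hours. Viability came from CellTiter-Glo 2.0 luminescence and was scaled as inhibition, anchored at 0 by vehicle wells and at 1 by blank wells. Combination Emax is taken as the second-highest inhibition in the matrix, and Bliss excess as the observed combination effect less EA + EB − EA·EB, with EA and EB the single-agent effects.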

[2] = test system: CAMA-1 (Breast Carcinoma); assay: as above
In short: as §1

[3] = test system: NCI-H1792 (Lung Adenocarcinoma); assay: as above
In short: as §1

WM-115 (Melanoma) [4] = assay: as above
In short: as §1

[5] = test system: SW837 (Colorectal Carcinoma); assay: as above
In short: as §1

[6] = test system: L-540 (Hodgkin's Lymphoma); assay: as above
In short: as §1

[7] = test system: SR (Other Blood Carcinomas); assay: as above
In short: as §1

[8] = test system: BFTC-905 (Bladder Carcinoma); assay: as above
In short: as §1

NCI-H2818 (Mesothelioma) [9] = assay: as above
In short: as §1

ES8 (Ewing's Sarcoma) [10] = assay: as above
In short: as §1

ES1 (Ewing's Sarcoma) [11] = assay: as above
In short: as §1

[12] = test system: MKN28 (Gastric Carcinoma); assay: as above
In short: as §1

[13] = test system: GR-ST (B-Lymphoblastic Leukemia); assay: as above
In short: as §1

[14] = test system: SW1417 (Colorectal Carcinoma); assay: as above
In short: as §1

[15] = test system: DND-41 (T-Lymphoblastic Leukemia); assay: as above
In short: as §1

[16] = test system: TE-6 (Esophageal Squamous Cell Carcinoma); assay: as above
In short: as §1

TC-71 (Ewing's Sarcoma) [17] = assay: as above
In short: as §1

[18] = test system: K-562 (Chronic Myelogenous Leukemia); assay: as above
In short: as §1

[19] = test system: BL-41 (Burkitt's Lymphoma); assay: as above
In short: as §1

WIL2-NS (Non-Cancerous) [20] = assay: as above
In short: as §1

U251 (Low Grade Glioma) [21] = assay: Bliss excess, mean over the matrix (fraction); higher = more synergy
In short: as §1

[22] = test system: CAMA-1 (Breast Carcinoma); assay: as above
In short: as §1

[23] = test system: NCI-H1792 (Lung Adenocarcinoma); assay: as above
In short: as §1

WM-115 (Melanoma) [24] = assay: as above
In short: as §1

[25] = test system: SW837 (Colorectal Carcinoma); assay: as above
In short: as §1

[26] = test system: L-540 (Hodgkin's Lymphoma); assay: as above
In short: as §1

[27] = test system: SR (Other Blood Carcinomas); assay: as above
In short: as §1

[28] = test system: BFTC-905 (Bladder Carcinoma); assay: as above
In short: as §1

NCI-H2818 (Mesothelioma) [29] = assay: as above
In short: as §1

ES8 (Ewing's Sarcoma) [30] = assay: as above
In short: as §1

ES1 (Ewing's Sarcoma) [31] = assay: as above
In short: as §1

[32] = test system: MKN28 (Gastric Carcinoma); assay: as above
In short: as §1

[33] = test system: GR-ST (B-Lymphoblastic Leukemia); assay: as above
In short: as §1

[34] = test system: SW1417 (Colorectal Carcinoma); assay: as above
In short: as §1

[35] = test system: DND-41 (T-Lymphoblastic Leukemia); assay: as above
In short: as §1

[36] = test system: TE-6 (Esophageal Squamous Cell Carcinoma); assay: as above
In short: as §1

TC-71 (Ewing's Sarcoma) [37] = assay: as above
In short: as §1

[38] = test system: K-562 (Chronic Myelogenous Leukemia); assay: as above
In short: as §1

[39] = test system: BL-41 (Burkitt's Lymphoma); assay: as above
In short: as §1

WIL2-NS (Non-Cancerous) [40] = assay: as above
In short: as §1
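Wherever Bliss excess, mean over the matrix is given: after 72 h of two-drug dosing.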

SMILES | combination Emax (U251 (Low Grade Glioma) [1]) | combination Emax [2] | combination Emax [3] | combination Emax (WM-115 (Melanoma) [4]) | combination Emax [5] | combination Emax [6] | combination Emax [7] | combination Emax [8] | combination Emax (NCI-H2818 (Mesothelioma) [9]) | combination Emax (ES8 (Ewing's Sarcoma) [10]) | combination Emax (ES1 (Ewing's Sarcoma) [11]) | combination Emax [12] | combination Emax [13] | combination Emax [14] | combination Emax [15] | combination Emax [16] | combination Emax (TC-71 (Ewing's Sarcoma) [17]) | combination Emax [18] | combination Emax [19] | combination Emax (WIL2-NS (Non-Cancerous) [20]) | Bliss excess (U251 (Low Grade Glioma) [21]) | Bliss excess [22] | Bliss excess [23] | Bliss excess (WM-115 (Melanoma) [24]) | Bliss excess [25] | Bliss excess [26] | Bliss excess [27] | Bliss excess [28] | Bliss excess (NCI-H2818 (Mesothelioma) [29]) | Bliss excess (ES8 (Ewing's Sarcoma) [30]) | Bliss excess (ES1 (Ewing's Sarcoma) [31]) | Bliss excess [32] | Bliss excess [33] | Bliss excess [34] | Bliss excess [35] | Bliss excess [36] | Bliss excess (TC-71 (Ewing's Sarcoma) [37]) | Bliss excess [38] | Bliss excess [39] | Bliss excess (WIL2-NS (Non-Cancerous) [40])
CS(=O)(=O)CCNCc1ccc(-c2ccc3ncnc(Nc4ccc(OCc5cccc(F)c5)c(Cl)c4)c3c2)o1 [Lapatinib] + NC1(c2ccc(-c3nc4ccn5c(=O)[nH]nc5c4cc3-c3ccccc3)cc2)CCC1 [MK-2206] (first compound max 10 µM, 7x7, partner max 10 µM) | 0.454 | 0.909 | 0.785 | 0.855 | 0.633 | 0.918 | 0.819 | 0.888 | 0.351 | 0.851 | 0.97 | 0.687 | 0.981 | 0.459 | 0.946 | 0.816 | 0.589 | 0.602 | 0.942 | 0.674 | -0.0083 | 0.0301 | 0.0243 | -0.0093 | 0.0106 | -0.0209 | 0.0147 | 0.0323 | -0.0155 | -0.004 | 0.0341 | -0.0445 | -0.0298 | 0.0395 | 0.0377 | -0.0159 | -0.0342 | -0.0367 | 0.0176 | 0.0569
Cc1nc(-c2cn3c(n2)-c2ccc(-c4cnn(C(C)(C)C(N)=O)c4)cc2OCC3)n(C(C)C)n1 [Taselisib] + O=C(Nc1ccc2[nH]nc(-c3ccncc3)c2c1)[C@@H]1CCN(CC(=O)N2CCN(c3ccc(-c4ncccn4)cc3)CC2)C1 [SCH772984] (first compound max 10 µM, 7x7, partner max 5 µM) |  | 0.563 | 0.966 | 0.951 | 0.747 | 0.474 | 0.681 | 0.999 | 0.372 | 0.84 | 0.77 | 0.451 | 0.706 | 0.756 | 0.611 |  |  | 0.53 | 0.263 | 0.728 |  | 0.0216 | 0.0818 | 0.0394 | 0.0556 | 0.0023 | 0.177 | 0.172 | 0.0096 | 0.117 | 0.0604 | 0.0966 | -0.0418 | 0.0781 | 0.14 |  |  | 0.0488 | 0.0266 | 0.106
CC1(C)CCC(CN2CCN(c3ccc(C(=O)NS(=O)(=O)c4ccc(NCC5CCOCC5)c([N+](=O)[O-])c4)c(Oc4cnc5[nH]ccc5c4)c3)CC2)=C(c2ccc(Cl)cc2)C1 [Venetoclax] + CS(=O)(=O)CCNCc1ccc(-c2ccc3ncnc(Nc4ccc(OCc5cccc(F)c5)c(Cl)c4)c3c2)o1 [Lapatinib] (first compound max 1 µM, 7x7, partner max 10 µM) |  | 0.162 | 0.345 | 0.237 | 0.185 | 0.532 | 0.36 | 0.254 | 0.174 | 0.506 | 0.381 | 0.397 | 0.934 | 0.136 | 0.81 |  |  | 0.451 | 0.855 | 0.348 |  | -0.0271 | -0.0311 | -0.0897 | -0.0498 | -0.005 | 0.0557 | -0.0591 | -0.0651 | -0.0229 | -0.0215 | -0.0303 | -0.0246 | -0.0168 | -0.0268 |  |  | -0.0039 | 0.0434 | 0.0039
